Source: paper PMC10709440, “High-throughput ligand profile characterization in novel cell lines expressing seven heterologous insect olfactory receptors for the detection of volatile plant biomarkers” (Scientific Reports, 2023)
Where “and” joins values, the source holds several entries; their conditions need not be identical. Equal values may be shown once.

How the values were obtained:
Drosophila OR71a = target: T1, Drosophila OR71a (Drosophila melanogaster, UniProt Q9VUK5); test: Calcium ion fluorescence (GCaMP6) assay, OR71a stable HEK293 cell line; type: cell-based; conditions: for Average response: VUAA1-normalized response, mean of biological replicates; for DF norm AVERAGE OR71a: threshold 0.05, below shown as 0
T1 construct: expressed in transfected cells
T1 sequence (Q9VUK5 1-378): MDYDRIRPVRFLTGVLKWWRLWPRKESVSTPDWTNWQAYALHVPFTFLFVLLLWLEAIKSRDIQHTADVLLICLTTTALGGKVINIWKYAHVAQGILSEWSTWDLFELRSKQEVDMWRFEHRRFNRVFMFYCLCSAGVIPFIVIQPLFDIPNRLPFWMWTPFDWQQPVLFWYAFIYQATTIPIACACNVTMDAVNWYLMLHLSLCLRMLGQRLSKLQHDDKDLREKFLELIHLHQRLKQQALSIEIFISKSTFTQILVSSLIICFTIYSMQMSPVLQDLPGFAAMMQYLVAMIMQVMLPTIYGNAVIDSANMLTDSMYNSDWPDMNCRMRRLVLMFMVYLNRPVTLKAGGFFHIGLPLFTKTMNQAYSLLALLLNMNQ
T1 sequence (Q9VNB5 1-486 partner): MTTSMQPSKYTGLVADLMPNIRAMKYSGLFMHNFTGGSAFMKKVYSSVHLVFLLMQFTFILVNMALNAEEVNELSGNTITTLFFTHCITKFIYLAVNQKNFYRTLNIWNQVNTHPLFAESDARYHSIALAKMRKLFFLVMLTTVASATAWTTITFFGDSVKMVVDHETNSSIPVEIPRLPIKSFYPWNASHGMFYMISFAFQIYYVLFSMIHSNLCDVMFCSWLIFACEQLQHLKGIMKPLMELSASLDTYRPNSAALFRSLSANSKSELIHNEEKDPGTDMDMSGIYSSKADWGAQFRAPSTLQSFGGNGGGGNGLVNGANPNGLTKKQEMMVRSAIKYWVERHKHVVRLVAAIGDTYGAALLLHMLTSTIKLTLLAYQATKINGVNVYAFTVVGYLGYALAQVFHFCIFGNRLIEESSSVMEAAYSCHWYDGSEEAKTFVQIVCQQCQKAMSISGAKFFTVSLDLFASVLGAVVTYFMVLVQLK
Procedure, shortened: (§1)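 HEK293 lines stably expressing each Drosophila OR with GCaMP6, doxycycline-induced (1 μg/mL) 48 or 72 h. Fluorescence recorded 5 s baseline then 30 s after VOC injection at pH 7.3; ΔF=(FMAX−F0)/F0, normalized to 50 µM VUAA1 response per line, triplicate wells averaged; concentration series 0.01–100 μM.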

Drosophila OR47a = target: T2, Drosophila OR47a (Drosophila melanogaster, UniProt P81921); test: Calcium ion fluorescence (GCaMP6) assay, OR47a stable HEK293 cell line; type: cell-based; conditions: for Average response: mean of biological replicates; for DF norm AVERAGE OR47a: threshold 0.05, below shown as 0
T2 construct: expressed in transfected cells
T2 sequence (P81921 1-385): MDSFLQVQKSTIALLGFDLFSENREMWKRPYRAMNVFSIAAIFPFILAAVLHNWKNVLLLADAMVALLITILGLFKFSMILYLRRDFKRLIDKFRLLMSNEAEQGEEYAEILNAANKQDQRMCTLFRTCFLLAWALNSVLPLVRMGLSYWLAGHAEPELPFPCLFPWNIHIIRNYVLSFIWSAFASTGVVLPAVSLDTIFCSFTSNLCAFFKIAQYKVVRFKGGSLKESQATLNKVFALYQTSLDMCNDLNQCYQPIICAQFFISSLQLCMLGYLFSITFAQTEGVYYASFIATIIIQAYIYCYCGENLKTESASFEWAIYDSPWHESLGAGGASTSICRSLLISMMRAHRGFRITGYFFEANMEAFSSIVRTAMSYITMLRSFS
T2 sequence (Q9VNB5 1-486 partner): T1 sequence (Q9VNB5 1-486 partner)
Procedure, shortened: as §1

[1] = ligand concentration 1 (unit not given)
[2] = ligand concentration 10 (unit not given)
[3] = ligand concentration 100 (unit not given)
[4] = HEK293, read-out: OR47a Average response (VUAA1-normalized)

CCCCCOC(C)=O [pentyl acetate]
OR71a response (VUAA1-normalized) at 1 μM (Drosophila OR71a; OR71a cell line, VOC concentration 1 μM): 0.00 | OR71a response (VUAA1-normalized) at 10 μM (Drosophila OR71a; OR71a cell line, VOC concentration 10 μM): 0.00 | OR71a response (VUAA1-normalized) at 100 μM (Drosophila OR71a; OR71a cell line, VOC concentration 100 μM): 0.09 | Average response (Drosophila OR71a; OR71a cell line, cc. 1 µM): 0.00 | Average response (Drosophila OR71a; OR71a cell line, cc. 10 µM): 0.0163 | Average response (Drosophila OR71a; OR71a cell line, cc. 100 µM): 0.09 | DF norm AVERAGE OR71a (Drosophila OR71a; [1]): 0 | DF norm AVERAGE OR71a (Drosophila OR71a; [2]): 0 | DF norm AVERAGE OR71a (Drosophila OR71a; [3]): 0.08698 | EC50 (Drosophila OR47a; AVERAGE EC50, the 14th table, corresponds to average LOG EC50, given with 95% confidence interval): 2220 nM | EC50 (Drosophila OR47a; EC50, AVERAGE of replicate fits, the 14th table, arithmetic average, N 5): 2410 nM | EC50 (Drosophila OR47a; EC50, OR47a cell line, fitted Hill equation, Hill coefficient constrained to 1, maximal response max 1): 2220 nM | EC50 (Drosophila OR47a; EC50, fitted average curve, the 14th table, fit to the average curve, n 0.854956): 2560 nM | EC50 (Drosophila OR47a; EC50, fitted parameter per biological replicate, the 14th table, individual replicate fits): 1810 nM and 2840 nM and 3360 nM and 2980 nM and 1050 nM | activation at 1 µM (Drosophila OR47a; [4]): 41% | activation at 10 µM (Drosophila OR47a; [4]): 85% | activation at 100 µM (Drosophila OR47a; [4]): 76% | Emax (Drosophila OR47a; HEK293, read-out: VUAA1 normalized MAX response): 96% | EC50 (Drosophila OR47a; LOG EC50, AVERAGE of replicate fits, the 14th table, N 5): 2220 nM | EC50 (Drosophila OR47a; LOG EC50, fitted parameter per biological replicate, the 14th table, OR47a D-R pentyl acetate, individual replicate fits, MIN 0, n 1): 1810 nM and 2840 nM and 3360 nM and 2980 nM and 1050 nM | OR47a response (VUAA1-normalized) at 1 μM (Drosophila OR47a; OR47a cell line, VOC concentration 1 μM): 0.41 | OR47a response (VUAA1-normalized) at 10 μM (Drosophila OR47a; OR47a cell line, VOC concentration 10 μM): 0.85 | OR47a response (VUAA1-normalized) at 100 μM (Drosophila OR47a; OR47a cell line, VOC concentration 100 μM): 0.76 | Average response (Drosophila OR47a; OR47a cell line, odorant cc. 1 µM): 0.41 | Average response (Drosophila OR47a; OR47a cell line, odorant cc. 10 µM): 0.85 | Average response (Drosophila OR47a; OR47a cell line, odorant cc. 100 µM): 0.76 | DF norm AVERAGE OR47a (Drosophila OR47a; [1]): 0.4101 | DF norm AVERAGE OR47a (Drosophila OR47a; [2]): 0.8532 | DF norm AVERAGE OR47a (Drosophila OR47a; [3]): 0.7595 | dose-response, response per biological replicate (Drosophila OR47a; the 14th table, VOC concentration 0.15): 0 (2×) and 0.08996 | dose-response, AVERAGE response (Drosophila OR47a; the 14th table, VOC concentration 0.15, N 3): 0.02999 | dose-response, response per biological replicate (Drosophila OR47a; the 14th table, VOC concentration 0.3): 0 (2×) and 0.06871 and 0.1596 | dose-response, AVERAGE response (Drosophila OR47a; the 14th table, VOC concentration 0.3, N 4): 0.05709 | dose-response, response per biological replicate (Drosophila OR47a; the 14th table, VOC concentration 0.6): 0.1609 and 0.1169 and 0.06805 and 0.08558 and 0.2252 | dose-response, AVERAGE response (Drosophila OR47a; the 14th table, VOC concentration 0.6, N 5): 0.1313 | dose-response, response per biological replicate (Drosophila OR47a; the 14th table, VOC concentration 1.25): 0.1915 and 0.1656 and 0.1715 and 0.5641 | dose-response, AVERAGE response (Drosophila OR47a; the 14th table, VOC concentration 1.25, N 4): 0.2732 | dose-response, response per biological replicate (Drosophila OR47a; the 14th table, VOC concentration 2.5): 0.3991 and 0.4483 and 0.3729 and 0.3818 and 0.7224 | dose-response, AVERAGE response (Drosophila OR47a; the 14th table, VOC concentration 2.5, N 5): 0.4649 | dose-response, response per biological replicate (Drosophila OR47a; the 14th table, VOC concentration 5): 0.9001 and 0.6438 and 0.6113 and 0.6294 and 0.9303 | dose-response, AVERAGE response (Drosophila OR47a; the 14th table, VOC concentration 5, N 5): 0.743 | dose-response, response per biological replicate (Drosophila OR47a; the 14th table, VOC concentration 10): 0.8372 and 0.7794 and 0.895 and 0.7979 and 1.027 | dose-response, AVERAGE response (Drosophila OR47a; the 14th table, VOC concentration 10, N 5): 0.8674 | dose-response, response per biological replicate (Drosophila OR47a; the 14th table, VOC concentration 20): 1.202 and 0.8226 and 0.9992 and 0.8736 and 1.052 | dose-response, AVERAGE response (Drosophila OR47a; the 14th table, VOC concentration 20, N 5): 0.99 | dose-response, response per biological replicate (Drosophila OR47a; the 14th table, VOC concentration 40): 1.114 and 0.9003 and 0.922 and 0.9538 and 0.9871 | dose-response, AVERAGE response (Drosophila OR47a; the 14th table, VOC concentration 40, N 5): 0.9754 | dose-response, response per biological replicate (Drosophila OR47a; the 14th table, VOC concentration 60): 1.02 and 0.8294 and 1.116 and 0.8263 and 0.955 | dose-response, AVERAGE response (Drosophila OR47a; the 14th table, VOC concentration 60, N 5): 0.9493 | dose-response, response per biological replicate (Drosophila OR47a; the 14th table, VOC concentration 80): 0.8413 and 0.8664 and 0.788 and 0.8411 | dose-response, AVERAGE response (Drosophila OR47a; the 14th table, VOC concentration 80, N 4): 0.8342 | dose-response, response per biological replicate (Drosophila OR47a; the 14th table, VOC concentration 100): 0.8402 and 0.9595 and 0.7641 and 0.7857 | dose-response, AVERAGE response (Drosophila OR47a; the 14th table, VOC concentration 100, N 4): 0.8374 | AVERAGE MAX (Drosophila OR47a; the 14th table, average of replicate fits, N 5): 0.9609 | MAX, fitted average curve (Drosophila OR47a; the 14th table, fit to the average curve, n 0.854956): 1 | MAX, fitted parameter per biological replicate (Drosophila OR47a; the 14th table, individual replicate fits): 1 (2×) and 0.9126 and 0.907 and 0.9849
